Data set [1] in a line: Dissolution in simulated saliva media (Example 15). The format is physicochemical. The note with it: simulated saliva pH 6.2, 37° C., two samples per time point, hydrochloride. As for the experimental part: The dissolution of the composition as described in Example 5 was compared to the dissolution of USP grade apomorphine hydrochloride. The following procedure was employed to obtain the dissolution profiles: • 1.
• 3. Approximately 5 mL or 10 mL of pre-warmed simulated saliva was added to the vials of step 2 according to the table above, and a stop watch was started. The vials with the media were gently swirled to allow the powder in the vials to go into solution. • 4. At specific time points, samples of the media were withdrawn from the vials of step 3 and transferred into the barrel of a 10 mL syringe with a […] filter attached to the tip of the syringe. The solution was pushed through the filter and collected for HPLC assay according to the procedure described in Example 13 above. • 5. For sample time points longer than 5 minutes the vials of step 3 were placed in a 37° C. incubator and shaken at 50 rpms until the collection time point.

The nature of data set [2]: Solubility of apomorphine in phosphate buffers at varying pH (Example 14). The format is physicochemical. As to conditions: stirred ~18 hours. On the procedure:
The testing procedure was as followings: • 1. […] The samples were stirred for ˜18 hours before analysis. • 4. […] The samples were stirred for ˜18 hours before analysis. • 5. After stirring ˜2mL of the supernatant was obtained from each vial and centrifuge at 12000 RPM to precipitate un-dissolved drug. • 6. After centrifugations, approximately 1 mL of the supernatant was diluted with approximately 50 mL of water: methanol: H3PO4 (50:50:1.2 v/v) for HPLC analysis according to the procedure described in Example 13 above.

The conditions of data set [3]: subcutaneous injections, on-off fluctuations in Parkinson's disease; cited from earlier work.
For data set [4] the following is noted: sublingual apomorphine tablets, prolonged use; cited from earlier work.

Converted amounts (≈) assume the structure as drawn. “And” between values parts separate entries of the source, which are not always exact repeats. Identical values can stand only once. Counter-ions that a name gives are not always drawn. Like-named read-outs stand apart in the source and are kept apart here.

By solubility is commonly meant how much of the substance goes into solution per volume.

Consider `CN1CCc2cccc3c2[C@H]1Cc1ccc(O)c(O)c1-3` [Apomorphine HCl, apomorphine hydrochloride], for which the dissolution is 30.52% and 27.73% in data set [1] (0.5 min); 34.58% and 30.24% in data set [1] (1 min); 57.54% and 46.57% in data set [1] (5 min); 46.00% and 52.29% in data set [1] (10 min); 53.23% and 74.97% in data set [1] (30 min); 22.75% and 19.05% in data set [1] (Initial). Further, the solubility came out at 22.8 mg/mL in data set [2] (pH 2.50 phosphate buffer, hydrochloride, unit assumed); 21.6 mg/mL in data set [2] (pH 3.00 phosphate buffer, hydrochloride, unit assumed); 20 mg/mL in data set [2] (pH 4.00 phosphate buffer, hydrochloride, unit assumed); 18.8 mg/mL in data set [2] (pH 5.00 phosphate buffer, hydrochloride, unit assumed); 7.4 mg/mL in data set [2] (pH 6.00 phosphate buffer, hydrochloride, unit assumed); 7.2 mg/mL in data set [2] (pH 6.20 phosphate buffer, hydrochloride, unit assumed). The solubility was 3.7 mg/mL in data set [2] (pH 6.40 phosphate buffer, hydrochloride, unit assumed); 0.27 mg/mL in data set [2] (pH 8.00 phosphate buffer, hydrochloride, unit assumed); 1.9 mg/mL in data set [2] (phosphate buffer, pH 6.6, aqueous buffer, thermodynamic from solid, pH 6.60 phosphate buffer, read-out: solubility); 1.4 mg/mL in data set [2] (phosphate buffer, pH 6.8, aqueous buffer, thermodynamic from solid, pH 6.80 phosphate buffer, read-out: solubility); 1 mg/mL in data set [2] (phosphate buffer, pH 7, aqueous buffer, thermodynamic from solid, pH 7.00 phosphate buffer, read-out: solubility); 0.61 mg/mL in data set [2] (phosphate buffer, pH 7.4, aqueous buffer, thermodynamic from solid, pH 7.40 phosphate buffer, read-out: solubility).

For the compound `CN1CCc2cccc3c2[C@H]1Cc1ccc(O)c(O)c1-3` [Apomorphine Free Base, 6αβ-aporphine-10, 11 diol], the solubility came out at 9.2 mg/mL (≈ 34.4 mM) in data set [2] (pH 2.50 phosphate buffer, unit assumed); 3.7 mg/mL (≈ 13.8 mM) in data set [2] (pH 3.00 phosphate buffer, unit assumed); 2.7 mg/mL (≈ 10.1 mM) in data set [2] (pH 4.00 phosphate buffer, unit assumed); 2.5 mg/mL (≈ 9.35 mM) in data set [2] (pH 5.00 phosphate buffer, unit assumed); 2 mg/mL (≈ 7.48 mM) in data set [2] (pH 6.00 phosphate buffer, unit assumed); 1.7 mg/mL (≈ 6.36 mM) in data set [2] (pH 6.20 phosphate buffer, unit assumed). The solubility in data set [2] (pH 6.40 phosphate buffer, unit assumed) is 1.7 mg/mL (≈ 6.36 mM); in data set [2] (pH 6.60 phosphate buffer, unit assumed), 1.3 mg/mL (≈ 4.86 mM); in data set [2] (pH 6.80 phosphate buffer, unit assumed) it was 1.2 mg/mL (≈ 4.49 mM); in data set [2] (pH 7.00 phosphate buffer, unit assumed), 0.67 mg/mL (≈ 2.51 mM); in data set [2] (pH 7.40 phosphate buffer, unit assumed), 0.4 mg/mL (≈ 1.5 mM); in data set [2] (pH 8.00 phosphate buffer, unit assumed), 0.12 mg/mL (≈ 0.449 mM).

`CN1CCc2cccc3c2[C@H]1Cc1ccc(O)c(O)c1-3` [apomorphine, 6αβ-aporphine-10, 11 diol]: in data set [3], the duration of effect was 45 to 90 min and the “time to effect after administration” value was 5 to 15 min. For the same compound, the “patients with buccal mucosal ulceration (severe stomatitis)” value in data set [4] is on record as “approximately 30%”.

The values are drawn from US20190365641A1, “RAPIDLY DISINTEGRATING FORMULATIONS AND METHODS OF USE” (Impax Laboratories, Inc., priority 2013, published 2019).
